The target in one data set is T1, 26S proteasome (Homo sapiens, UniProt P28074).
T1 construct: ChT‐L activity of the 26S proteasome measured in control and transfected SH‐SY5Y cells; endogenous in cells; host or cells: SH-SY5Y (control, APPwt- and APPmut-transfected)
T1 sequence (P28074 60-263): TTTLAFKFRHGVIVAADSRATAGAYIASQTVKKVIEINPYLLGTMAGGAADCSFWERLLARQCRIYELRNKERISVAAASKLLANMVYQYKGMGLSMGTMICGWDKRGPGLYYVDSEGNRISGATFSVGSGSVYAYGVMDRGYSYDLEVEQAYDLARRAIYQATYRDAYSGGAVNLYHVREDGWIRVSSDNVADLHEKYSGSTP
The experiment in a line: 26S proteasome ChT‐L activity in cell lysates (fluorimetric). Format: cell-based. The note with it: cellular lysates, 24‐h exposure; versus untreated cells. As for the experimental part:
(§1) Cell viability was evaluated with the 3‐(4,5‐dimethylthiazol‐2‐yl)‐2,5‐diphenyltetrazolium bromide assay (MTT).^[ [25] ^] Upon 6 h and 24 h treatment with increasing concentrations (0‐10 µM) of C1, C2, and C3 dissolved in DMSO, cells were washed in PBS, pH 7.5, and then MTT (final concentration 0.5 mg mL^−1) was added to the culture medium without FBS and incubated for 2 h at 37 °C. The medium was then removed and replaced with 100 µL of DMSO. The optical density was measured at 550 nm in a microtiter plate reader. At least six cultures were utilized for each time point. […] Protein concentration was determined by the method of Bradford using bovine serum albumin (BSA) as standard.^[ [26] ^]
(§2) The effects on the proteasome system were evaluated through fluorimetric assays, as previously reported,^[ [27] ^] using the following synthetic substrates: Leu‐Leu‐Val‐Tyr‐AMC for ChT‐L, Leu‐Ser‐Thr‐Arg‐AMC for T‐L, Leu‐Leu‐Glu‐AMC for PGPH, and Gly‐Pro‐Ala‐Leu‐Ala‐AMC for BrAAP, whose test is performed with the addition of the aminopeptidase‐N (AP‐N). […] Incubation was performed at 37 °C, and after 60 min, the fluorescence of the hydrolyzed 7‐amino‐4‐methyl‐coumarin (AMC) was recorded (AMC, λexc = 365 nm, λem = 449 nm) on a SpectraMax Gemini XPS microplate reader. […] The fluorescence values of lysates were subtracted of the values of control assays in the presence of the two inhibitors.

A further data set has as its target T2, 20S proteasome (Homo sapiens, UniProt P28072+P28074+Q99436).
T2 construct: The incubation mixture contained 1 µg of cell lysate, the appropriate substrate; endogenous in cells; host or cells: SH-SY5Y (control, APPwt- and APPmut-transfected); only APP is transfected, the proteasome is endogenous
T2 sequence (P28074 60-263): T1 sequence (P28074 60-263)
T2 sequence (Q99436 44-277): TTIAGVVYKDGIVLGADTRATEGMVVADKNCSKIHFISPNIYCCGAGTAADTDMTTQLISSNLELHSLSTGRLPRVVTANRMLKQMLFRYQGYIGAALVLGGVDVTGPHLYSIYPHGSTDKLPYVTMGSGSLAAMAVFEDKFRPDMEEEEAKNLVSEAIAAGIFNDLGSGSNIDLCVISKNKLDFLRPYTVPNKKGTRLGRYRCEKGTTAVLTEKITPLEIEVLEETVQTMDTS
T2 sequence (P28072 1-239): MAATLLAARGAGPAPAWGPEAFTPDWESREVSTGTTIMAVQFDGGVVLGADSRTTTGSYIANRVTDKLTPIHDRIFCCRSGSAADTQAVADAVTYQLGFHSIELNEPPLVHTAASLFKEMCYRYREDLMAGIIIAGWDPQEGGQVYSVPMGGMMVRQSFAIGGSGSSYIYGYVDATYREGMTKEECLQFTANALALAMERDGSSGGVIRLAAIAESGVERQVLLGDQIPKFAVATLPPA
The experiment in a line: 20S proteasome activity in cell lysates (fluorimetric). Format: cell-based. The note with it: cellular lysates, 1 and 5 µM, 6 and 24 h. As to the method: as §1, §2

Data set [1] concerns SH‐SY5Y control and transfected cells. The data set can be described thus: MTT cell viability assay. Format: cell-based, human. The note with it: 24 h exposure, 10 µM, data not shown. As to the method: Cell viability was evaluated with the 3‐(4,5‐dimethylthiazol‐2‐yl)‐2,5‐diphenyltetrazolium bromide assay (MTT).^[ [25] ^] Upon 6 h and 24 h treatment with increasing concentrations (0‐10 µM) of C1, C2, and C3 dissolved in DMSO, cells were washed in PBS, pH 7.5, and then MTT (final concentration 0.5 mg mL^−1) was added to the culture medium without FBS and incubated for 2 h at 37 °C. The medium was then removed and replaced with 100 µL of DMSO. The optical density was measured at 550 nm in a microtiter plate reader. At least six cultures were utilized for each time point. Neuroblastoma cells, control and transfected cells, were then treated with C1, C2, and C3 for 6 and 24 h at the concentrations 0–1–5 µM. Compounds were dissolved in DMSO and then added to cell culture media. Control cells were included in each time point. After removing the medium and washing with cold phosphate buffered saline (PBS), cells were harvested in 4 mL of PBS and centrifuged at 1600 × g for 5 min. The pellet was resuspended in lysis buffer (20 mM Tris, pH 7.4, 250 mM sucrose, 1 mM EDTA, and 5 mM β‐mercaptoethanol) and passed through a 29‐gauge needle at least ten times. Lysates were centrifuged at 12 000×g for 15 min and the supernatants were stored at ‐80°C until use. Protein concentration was determined by the method of Bradford using bovine serum albumin (BSA) as standard.^[ [26] ^]

Take `O=C1CCC(Cc2ccc(O)cc2)O1` (stereo not shown) [Compound C1, 5‐(4ʹ‐hydroxyphenyl)‐γ‐valerolactone]: at 26S proteasome, the “ChT‐L residual activity, 26S proteasome” value is 30%.

Regarding `O=C1CCC(Cc2ccc(O)c(O)c2)O1` (stereo not shown) [Compound C2, 5‐(3ʹ,4ʹ‐dihydroxyphenyl)‐γ‐valerolactone], the “proteasome inhibition, comparison among the three tested compounds” value on 20S proteasome is given as “the least efficient”. For the same compound, the “number of APPmut viable cells (MTT)” value in data set [1] is “minor reduction”.

As to `O=C1CCC(Cc2ccc(OS(=O)(=O)O)c(O)c2)O1` (stereo not shown) [Compound C3, 5‐(3ʹ‐hydroxyphenyl)‐γ‐valerolactone‐4ʹ‐sulfate], the “ChT‐L residual activity, 26S proteasome” value at 26S proteasome turned out to be 60%.

These data come from paper PMC9285603, “Flavan‐3‐ol Microbial Metabolites Modulate Proteolysis in Neuronal Cells Reducing Amyloid‐beta (1‐42) Levels” (Molecular Nutrition & Food Research, 2021).
